Measurements reported in ChEMBL document CHEMBL5653631, “A Potent and Selective ULK1 Inhibitor Suppresses Autophagy and Sensitizes Cancer Cells to Nutrient Stress” (iScience, 2018).

Key:
[1] = target: Cyclin-dependent kinase 2 (Homo sapiens) (UniProt P24941); assay: Inhibition of human recombinant CDK2 at 40 nM in presence of ATP by radiometric assay relative to control
[2] = target: Calcium/calmodulin-dependent protein kinase type 1B (Homo sapiens) (UniProt Q6P2M8); assay: Inhibition of human recombinant CaMK1b at 40 nM related to control ULK1
[3] = target: T1, Serine/threonine-protein kinase ULK2 (Homo sapiens) (UniProt Q8IYT8); assay: Inhibition of human recombinant ULK2 at 500 nM related to control ULK1
T1 sequence (whole entry): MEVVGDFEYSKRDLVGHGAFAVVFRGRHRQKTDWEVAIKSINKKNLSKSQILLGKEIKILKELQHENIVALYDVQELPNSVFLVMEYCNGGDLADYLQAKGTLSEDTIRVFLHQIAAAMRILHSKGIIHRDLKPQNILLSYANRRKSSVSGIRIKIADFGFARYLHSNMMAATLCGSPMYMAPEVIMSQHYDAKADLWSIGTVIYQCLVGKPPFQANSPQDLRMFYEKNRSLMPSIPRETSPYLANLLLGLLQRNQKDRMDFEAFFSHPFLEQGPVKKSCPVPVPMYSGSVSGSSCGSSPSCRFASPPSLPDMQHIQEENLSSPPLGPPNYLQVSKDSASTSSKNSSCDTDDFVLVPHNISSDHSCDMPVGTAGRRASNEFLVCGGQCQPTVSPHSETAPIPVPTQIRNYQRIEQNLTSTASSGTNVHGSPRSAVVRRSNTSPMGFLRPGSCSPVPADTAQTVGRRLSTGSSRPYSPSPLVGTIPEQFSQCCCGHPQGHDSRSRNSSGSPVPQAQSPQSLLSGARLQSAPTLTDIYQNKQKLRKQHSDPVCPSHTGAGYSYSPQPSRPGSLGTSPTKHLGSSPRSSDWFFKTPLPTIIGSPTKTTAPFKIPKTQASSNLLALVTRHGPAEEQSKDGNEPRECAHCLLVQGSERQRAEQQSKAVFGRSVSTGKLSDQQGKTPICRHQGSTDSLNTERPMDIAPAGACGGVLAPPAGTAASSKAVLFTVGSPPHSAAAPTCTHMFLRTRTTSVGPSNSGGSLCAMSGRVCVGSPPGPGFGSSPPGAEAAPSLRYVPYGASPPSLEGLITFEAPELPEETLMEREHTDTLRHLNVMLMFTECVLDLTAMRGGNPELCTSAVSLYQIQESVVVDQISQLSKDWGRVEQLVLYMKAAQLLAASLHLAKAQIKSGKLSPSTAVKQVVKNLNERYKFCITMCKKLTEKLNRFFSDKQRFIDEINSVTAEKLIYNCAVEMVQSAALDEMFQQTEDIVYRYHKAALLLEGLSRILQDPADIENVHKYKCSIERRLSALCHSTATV

[4] = target: MAP/microtubule affinity-regulating kinase 3 (Homo sapiens) (UniProt P27448); assay: Inhibition of human recombinant MARK3 at 500 nM in presence of ATP by radiometric assay relative to control
[5] = target: T2, Inhibitor of nuclear factor kappa-B kinase subunit alpha (Homo sapiens) (UniProt O15111); assay: Inhibition of human recombinant IKKa at 15 nM in presence of ATP by radiometric assay relative to control
T2 sequence (whole entry): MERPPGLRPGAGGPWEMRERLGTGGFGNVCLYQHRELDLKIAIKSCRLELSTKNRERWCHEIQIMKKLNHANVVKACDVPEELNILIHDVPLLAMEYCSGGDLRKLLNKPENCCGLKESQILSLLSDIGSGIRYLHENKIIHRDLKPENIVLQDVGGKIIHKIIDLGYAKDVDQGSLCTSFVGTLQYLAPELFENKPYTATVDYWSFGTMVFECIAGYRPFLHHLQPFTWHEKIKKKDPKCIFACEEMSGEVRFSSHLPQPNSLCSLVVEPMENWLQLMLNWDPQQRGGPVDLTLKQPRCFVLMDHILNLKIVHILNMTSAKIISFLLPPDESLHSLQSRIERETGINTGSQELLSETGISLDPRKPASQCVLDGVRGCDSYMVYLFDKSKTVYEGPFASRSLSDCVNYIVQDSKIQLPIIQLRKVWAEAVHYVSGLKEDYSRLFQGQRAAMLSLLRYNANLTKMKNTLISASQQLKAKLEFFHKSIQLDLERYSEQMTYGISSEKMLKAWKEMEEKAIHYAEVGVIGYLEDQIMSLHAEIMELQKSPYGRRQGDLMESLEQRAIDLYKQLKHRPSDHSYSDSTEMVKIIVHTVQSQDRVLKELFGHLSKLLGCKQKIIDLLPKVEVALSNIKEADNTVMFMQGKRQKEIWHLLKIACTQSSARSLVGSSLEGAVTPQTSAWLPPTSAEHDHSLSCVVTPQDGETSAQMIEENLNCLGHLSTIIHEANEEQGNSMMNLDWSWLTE

[6] = target: T3, cGMP-dependent protein kinase 1 (Homo sapiens) (UniProt Q13976); assay: Inhibition of human recombinant PKG1 at 15 nM related to control ULK1
T3 sequence (whole entry): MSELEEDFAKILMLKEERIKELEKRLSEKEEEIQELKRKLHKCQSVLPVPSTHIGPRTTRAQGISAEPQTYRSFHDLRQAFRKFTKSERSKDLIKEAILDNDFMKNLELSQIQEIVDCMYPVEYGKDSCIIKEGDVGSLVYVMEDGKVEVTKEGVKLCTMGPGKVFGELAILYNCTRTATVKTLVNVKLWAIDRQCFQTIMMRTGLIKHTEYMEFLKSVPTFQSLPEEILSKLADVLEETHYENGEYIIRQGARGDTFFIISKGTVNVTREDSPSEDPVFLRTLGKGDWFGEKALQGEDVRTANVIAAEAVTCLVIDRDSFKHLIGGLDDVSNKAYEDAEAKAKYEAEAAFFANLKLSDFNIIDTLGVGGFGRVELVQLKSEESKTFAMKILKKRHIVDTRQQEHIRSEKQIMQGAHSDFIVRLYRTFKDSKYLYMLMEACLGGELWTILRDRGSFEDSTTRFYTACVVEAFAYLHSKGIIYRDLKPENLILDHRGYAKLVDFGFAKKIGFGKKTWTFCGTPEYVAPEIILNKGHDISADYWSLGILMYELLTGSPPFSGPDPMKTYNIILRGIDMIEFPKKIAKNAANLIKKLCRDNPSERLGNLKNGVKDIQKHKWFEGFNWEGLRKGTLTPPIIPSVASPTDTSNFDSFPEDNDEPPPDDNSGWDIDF

[7] = organism: Homo sapiens; assay: Inhibition of human recombinant KHS1 at 15 nM in presence of ATP by radiometric assay relative to control
[8] = target: Serine/threonine-protein kinase PAK 2 (Homo sapiens) (UniProt Q13177); assay: Inhibition of human recombinant PAK2 at 15 nM related to control ULK1
[9] = target: Proto-oncogene tyrosine-protein kinase Src (Homo sapiens) (UniProt P12931); assay: Inhibition of human recombinant SRC at 15 nM related to control ULK1
Sequence of Proto-oncogene tyrosine-protein kinase Src (Homo sapiens) (P12931 2-536 limits assumed): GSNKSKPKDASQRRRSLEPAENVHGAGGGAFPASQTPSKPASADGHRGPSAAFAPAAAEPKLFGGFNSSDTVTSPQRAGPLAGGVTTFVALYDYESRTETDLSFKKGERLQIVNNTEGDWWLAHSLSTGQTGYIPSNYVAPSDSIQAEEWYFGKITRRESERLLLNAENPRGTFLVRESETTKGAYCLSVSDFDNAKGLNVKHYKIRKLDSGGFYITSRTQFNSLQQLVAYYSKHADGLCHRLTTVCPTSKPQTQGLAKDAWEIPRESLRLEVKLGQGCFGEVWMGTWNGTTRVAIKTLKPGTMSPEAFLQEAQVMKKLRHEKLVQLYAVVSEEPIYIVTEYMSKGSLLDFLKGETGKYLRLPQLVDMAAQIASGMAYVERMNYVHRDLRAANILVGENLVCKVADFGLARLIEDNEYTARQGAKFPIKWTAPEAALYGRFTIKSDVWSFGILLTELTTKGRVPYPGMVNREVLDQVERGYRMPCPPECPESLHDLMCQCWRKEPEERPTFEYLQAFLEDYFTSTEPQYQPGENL

Sequence of MAP/microtubule affinity-regulating kinase 3 (Homo sapiens) (P27448 whole entry, looked up): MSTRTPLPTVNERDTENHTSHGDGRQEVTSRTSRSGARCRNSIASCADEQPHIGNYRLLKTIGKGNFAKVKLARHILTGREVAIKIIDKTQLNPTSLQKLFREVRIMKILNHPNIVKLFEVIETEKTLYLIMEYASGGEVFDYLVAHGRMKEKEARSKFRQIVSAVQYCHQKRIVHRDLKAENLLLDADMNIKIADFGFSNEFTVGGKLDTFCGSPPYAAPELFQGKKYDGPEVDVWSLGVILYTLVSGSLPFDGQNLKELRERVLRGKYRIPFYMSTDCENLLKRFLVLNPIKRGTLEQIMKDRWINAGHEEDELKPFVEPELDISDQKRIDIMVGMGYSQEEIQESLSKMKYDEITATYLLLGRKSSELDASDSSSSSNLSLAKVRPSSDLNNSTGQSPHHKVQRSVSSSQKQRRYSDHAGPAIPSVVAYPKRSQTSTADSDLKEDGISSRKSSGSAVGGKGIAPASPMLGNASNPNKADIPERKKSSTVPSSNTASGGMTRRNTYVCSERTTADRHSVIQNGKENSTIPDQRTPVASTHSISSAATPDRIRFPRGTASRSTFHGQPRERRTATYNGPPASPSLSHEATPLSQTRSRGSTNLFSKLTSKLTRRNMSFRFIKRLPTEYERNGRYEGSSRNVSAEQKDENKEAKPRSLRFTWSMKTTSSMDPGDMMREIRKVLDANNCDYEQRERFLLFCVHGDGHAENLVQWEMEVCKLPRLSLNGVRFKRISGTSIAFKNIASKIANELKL
Sequence of Serine/threonine-protein kinase PAK 2 (Homo sapiens) (Q13177 whole entry): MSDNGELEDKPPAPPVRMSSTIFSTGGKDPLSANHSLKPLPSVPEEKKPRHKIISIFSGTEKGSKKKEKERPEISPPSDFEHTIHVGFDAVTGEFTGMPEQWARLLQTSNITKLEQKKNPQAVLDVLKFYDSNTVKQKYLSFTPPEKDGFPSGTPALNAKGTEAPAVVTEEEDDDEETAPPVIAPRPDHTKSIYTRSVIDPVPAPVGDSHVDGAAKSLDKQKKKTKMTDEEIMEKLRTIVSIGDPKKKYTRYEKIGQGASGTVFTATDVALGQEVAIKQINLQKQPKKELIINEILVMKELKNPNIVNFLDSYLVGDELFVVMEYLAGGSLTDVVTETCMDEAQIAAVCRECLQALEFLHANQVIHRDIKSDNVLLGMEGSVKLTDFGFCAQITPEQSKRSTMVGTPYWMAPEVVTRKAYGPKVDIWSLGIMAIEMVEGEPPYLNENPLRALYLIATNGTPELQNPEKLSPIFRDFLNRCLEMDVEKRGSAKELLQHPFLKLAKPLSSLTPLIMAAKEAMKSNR
Sequence of Calcium/calmodulin-dependent protein kinase type 1B (Homo sapiens) (Q6P2M8 whole entry): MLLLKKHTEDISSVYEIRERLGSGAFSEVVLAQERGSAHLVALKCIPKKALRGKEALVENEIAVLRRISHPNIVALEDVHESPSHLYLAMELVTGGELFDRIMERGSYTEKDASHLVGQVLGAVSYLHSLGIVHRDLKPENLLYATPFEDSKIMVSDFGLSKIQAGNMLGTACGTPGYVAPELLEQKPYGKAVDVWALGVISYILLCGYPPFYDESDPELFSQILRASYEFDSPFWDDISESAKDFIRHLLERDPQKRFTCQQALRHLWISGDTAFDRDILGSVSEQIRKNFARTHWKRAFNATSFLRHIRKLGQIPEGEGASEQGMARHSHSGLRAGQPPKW

**Q.** What does the source list for `O=C(N[C@@H](C1CC1)C(F)(F)F)c1cc(-c2cnn3cc(-c4ccc(F)cc4)cnc23)cs1`?
**A.** inhibition [1]: 29%; fold change (FC) [2]: 0

**Q.** Which results are given for `CNC(=O)c1ccccc1Oc1nc(Nc2cc(OC)c(OC)c(OC)c2)ncc1Br`?
**A.** fold change (FC) [3]: 0.65; inhibition [4]: 45%

**Q.** For `CC(C)[C@H](NC(=O)c1cc(-c2cnn3cc(-c4ccc(OCCN5CCCCC5)cc4)cnc23)cs1)C(F)(F)F`, which inhibition [5] is on record?
**A.** 1%

**Q.** And the fold change (FC) [6]?
**A.** 0

**Q.** And the inhibition [7]?
**A.** 14%

**Q.** And the fold change (FC) [8]?
**A.** 0

**Q.** What about the fold change (FC) [9] of the same molecule?
**A.** 0.17
